# Assays:
# [1] = system: MDA-MB-468 (breast cancer); assay: NCI 60-cell one-dose antiproliferative screen; assay type: cell-based, human; conditions: one dose 10 μM
# [2] = system: EKVX (NSC lung cancer); assay: NCI 60-cell one-dose antiproliferative screen; assay type: cell-based, human; conditions: one dose 10 μM
# [3] = system: OVCAR-8 (ovarian cancer); assay: NCI 60-cell one-dose antiproliferative screen; assay type: cell-based, human; conditions: one dose 10 μM
# [4] = system: M14 (melanoma); assay: NCI 60-cell one-dose antiproliferative screen; assay type: cell-based, human; conditions: one dose 10 μM
# [5] = system: 786-0 (renal cancer); assay: NCI 60-cell one-dose antiproliferative screen; assay type: cell-based, human; conditions: one dose 10 μM
# [6] = system: SF-295 (CNS cancer); assay: NCI 60-cell one-dose antiproliferative screen; assay type: cell-based, human; conditions: one dose 10 μM
# [7] = system: A549/ATCC (NSC lung cancer); assay: NCI 60-cell one-dose antiproliferative screen; assay type: cell-based, human; conditions: one dose 10 μM
# [8] = system: NCI-H460 (NSC lung cancer); assay: NCI 60-cell one-dose antiproliferative screen; assay type: cell-based, human; conditions: one dose 10 μM
# [9] = system: HCT-116 (colon cancer); assay: NCI 60-cell one-dose antiproliferative screen; assay type: cell-based, human; conditions: one dose 10 μM
# [10] = system: DU-145 (prostate cancer); assay: NCI 60-cell one-dose antiproliferative screen; assay type: cell-based, human; conditions: one dose 10 μM
# [11] = system: SW-620 (colon cancer); assay: NCI 60-cell one-dose antiproliferative screen; assay type: cell-based, human; conditions: one dose 10 μM
# [12] = system: 60 human tumor cell lines; assay: NCI 60-cell one-dose antiproliferative screen, whole panel; assay type: cell-based; conditions: Homo sapiens, 60 cell, read-out: Mean inhibition (mean GI%)
# [13] = system: OVCAR-4 (ovarian cancer); assay: NCI 60-cell one-dose antiproliferative screen; assay type: cell-based, human; conditions: one dose 10 μM
# [14] = system: MALME-3M (melanoma); assay: NCI 60-cell one-dose antiproliferative screen; assay type: cell-based, human; conditions: one dose 10 μM
# [15] = system: HCC-2998 (colon cancer); assay: NCI 60-cell one-dose antiproliferative screen; assay type: cell-based, human; conditions: one dose 10 μM
# [16] = system: LOX IMIV (melanoma); assay: NCI 60-cell one-dose antiproliferative screen; assay type: cell-based, human; conditions: one dose 10 μM
# [17] = system: HOP-62 (NSC lung cancer); assay: NCI 60-cell one-dose antiproliferative screen; assay type: cell-based, human; conditions: one dose 10 μM
# [18] = system: IGROV1 (ovarian cancer); assay: NCI 60-cell one-dose antiproliferative screen; assay type: cell-based, human; conditions: one dose 10 μM
# [19] = system: UACC-257 (melanoma); assay: NCI 60-cell one-dose antiproliferative screen; assay type: cell-based, human; conditions: one dose 10 μM
# [20] = system: SK-OV-3 (ovarian cancer); assay: NCI 60-cell one-dose antiproliferative screen; assay type: cell-based, human; conditions: one dose 10 μM
# [21] = system: KM12 (colon cancer); assay: NCI 60-cell one-dose antiproliferative screen; assay type: cell-based, human; conditions: one dose 10 μM
# [22] = system: HOP-92 (NSC lung cancer); assay: NCI 60-cell one-dose antiproliferative screen; assay type: cell-based, human; conditions: one dose 10 μM
# [23] = system: HT29 (colon cancer); assay: NCI 60-cell one-dose antiproliferative screen; assay type: cell-based, human; conditions: one dose 10 μM
# [24] = system: NCI-H23 (NSC lung cancer); assay: NCI 60-cell one-dose antiproliferative screen; assay type: cell-based, human; conditions: one dose 10 μM
# [25] = system: U251 (CNS cancer); assay: NCI 60-cell one-dose antiproliferative screen; assay type: cell-based, human; conditions: one dose 10 μM
# [26] = system: NCI-H226 (NSC lung cancer); assay: NCI 60-cell one-dose antiproliferative screen; assay type: cell-based, human; conditions: one dose 10 μM
# [27] = system: COLO-205 (colon cancer); assay: NCI 60-cell one-dose antiproliferative screen; assay type: cell-based, human; conditions: one dose 10 μM
# [28] = system: SNB-75 (CNS cancer); assay: NCI 60-cell one-dose antiproliferative screen; assay type: cell-based, human; conditions: one dose 10 μM
# [29] = system: HS 578T (breast cancer); assay: NCI 60-cell one-dose antiproliferative screen; assay type: cell-based, human; conditions: one dose 10 μM
# [30] = system: SNB-19 (CNS cancer); assay: NCI 60-cell one-dose antiproliferative screen; assay type: cell-based, human; conditions: one dose 10 μM
# [31] = system: HCT-15 (colon cancer); assay: NCI 60-cell one-dose antiproliferative screen; assay type: cell-based, human; conditions: one dose 10 μM
# [32] = system: CCRF-CEM (leukemia); assay: NCI 60-cell one-dose antiproliferative screen; assay type: cell-based, human; conditions: one dose 10 μM
# [33] = system: SK-MEL-2 (melanoma); assay: NCI 60-cell one-dose antiproliferative screen; assay type: cell-based, human; conditions: one dose 10 μM
# [34] = system: OVCAR-5 (ovarian cancer); assay: NCI 60-cell one-dose antiproliferative screen; assay type: cell-based, human; conditions: one dose 10 μM
# [35] = system: ACHN (renal cancer); assay: NCI 60-cell one-dose antiproliferative screen; assay type: cell-based, human; conditions: one dose 10 μM
# [36] = system: SN12C (renal cancer); assay: NCI 60-cell one-dose antiproliferative screen; assay type: cell-based, human; conditions: one dose 10 μM
# [37] = system: UO-31 (renal cancer); assay: NCI 60-cell one-dose antiproliferative screen; assay type: cell-based, human; conditions: one dose 10 μM
# [38] = system: SF-539 (CNS cancer); assay: NCI 60-cell one-dose antiproliferative screen; assay type: cell-based, human; conditions: one dose 10 μM
# [39] = system: CAKI-1 (renal cancer); assay: NCI 60-cell one-dose antiproliferative screen; assay type: cell-based, human; conditions: one dose 10 μM
# [40] = system: NCI-H322M (NSC lung cancer); assay: NCI 60-cell one-dose antiproliferative screen; assay type: cell-based, human; conditions: one dose 10 μM
# [41] = system: NCI/ADR-RES (ovarian cancer); assay: NCI 60-cell one-dose antiproliferative screen; assay type: cell-based, human; conditions: one dose 10 μM
# [42] = system: RPMI-8226 (leukemia); assay: NCI 60-cell one-dose antiproliferative screen; assay type: cell-based, human; conditions: one dose 10 μM
# [43] = system: T-47D (breast cancer); assay: NCI 60-cell one-dose antiproliferative screen; assay type: cell-based, human; conditions: one dose 10 μM
# [44] = system: TK-10 (renal cancer); assay: NCI 60-cell one-dose antiproliferative screen; assay type: cell-based, human; conditions: one dose 10 μM
# [45] = system: MDA-MB-435 (melanoma); assay: NCI 60-cell one-dose antiproliferative screen; assay type: cell-based, human; conditions: one dose 10 μM
# [46] = system: A498 (renal cancer); assay: NCI 60-cell one-dose antiproliferative screen; assay type: cell-based, human; conditions: one dose 10 μM
# [47] = system: PC-3 (prostate cancer); assay: NCI 60-cell one-dose antiproliferative screen; assay type: cell-based, human; conditions: one dose 10 μM
# [48] = system: UACC-62 (melanoma); assay: NCI 60-cell one-dose antiproliferative screen; assay type: cell-based, human; conditions: one dose 10 μM
# [49] = system: SK-MEL-28 (melanoma); assay: NCI 60-cell one-dose antiproliferative screen; assay type: cell-based, human; conditions: one dose 10 μM
# [50] = system: MDA-MB-231/ATCC (breast cancer); assay: NCI 60-cell one-dose antiproliferative screen; assay type: cell-based, human; conditions: one dose 10 μM
# [51] = system: SF-268 (CNS cancer); assay: NCI 60-cell one-dose antiproliferative screen; assay type: cell-based, human; conditions: one dose 10 μM
# [52] = system: MCF7 (breast cancer); assay: NCI 60-cell one-dose antiproliferative screen; assay type: cell-based, human; conditions: one dose 10 μM
# [53] = system: OVCAR-3 (ovarian cancer); assay: NCI 60-cell one-dose antiproliferative screen; assay type: cell-based, human; conditions: one dose 10 μM
# [54] = system: RXF 393 (renal cancer); assay: NCI 60-cell one-dose antiproliferative screen; assay type: cell-based, human; conditions: one dose 10 μM
# [55] = system: NCI-H522 (NSC lung cancer); assay: NCI 60-cell one-dose antiproliferative screen; assay type: cell-based, human; conditions: one dose 10 μM
smiles,measurement,setting,value
"CN(C)c1ccc(C=NNc2ccc3nnc(-c4ccccc4)n3n2)cc1 [Compound 4c, N,N-Dimethyl-4-((2-(3-phenyl-[1,2,4]triazolo[4,3-b]pyridazin-6-yl)hydrazono)methyl)aniline]",GI%,[1],— (— GI% is below 15%)
same,GI%,[2],21.18%
same,GI%,[3],57.57%
same,GI%,[4],— (— GI% is below 15%)
same,GI%,[5],18.27%
same,GI%,[6],— (— GI% is below 15%)
same,GI%,[7],— (— GI% is below 15%)
same,GI%,[8],18.89%
same,GI%,[9],— (— GI% is below 15%)
same,GI%,[10],26.64%
same,GI%,[11],— (— GI% is below 15%)
same,inhibition at 10 µM,[12],17.7%
same,GI%,[13],41.36%
same,GI%,[14],— (— GI% is below 15%)
same,GI%,[15],— (— GI% is below 15%)
same,GI%,[16],62.55%
same,GI%,[17],— (— GI% is below 15%)
same,GI%,[18],— (— GI% is below 15%)
same,GI%,[19],— (— GI% is below 15%)
same,GI%,[20],— (— GI% is below 15%)
same,GI%,[21],28.28%
same,GI%,[22],29.78%
same,GI%,[23],— (— GI% is below 15%)
same,GI%,[24],38.62%
same,GI%,[25],24.58%
same,GI%,[26],— (— GI% is below 15%)
same,GI%,[27],— (— GI% is below 15%)
same,GI%,[28],65.40%
same,GI%,[29],33.19%
same,GI%,[30],30.50%
same,GI%,[31],19.56%
same,GI%,[32],— (— GI% is below 15%)
same,GI%,[33],— (— GI% is below 15%)
same,GI%,[34],— (— GI% is below 15%)
same,GI%,[35],21.61%
same,GI%,[36],— (— GI% is below 15%)
same,GI%,[37],18.89%
same,GI%,[38],— (— GI% is below 15%)
same,GI%,[39],32.25%
same,GI%,[40],— (— GI% is below 15%)
same,GI%,[41],55.19%
same,GI%,[42],— (— GI% is below 15%)
same,GI%,[43],22.66%
same,GI%,[44],— (— GI% is below 15%)
same,GI%,[45],— (— GI% is below 15%)
same,GI%,[46],— (— GI% is below 15%)
same,GI%,[47],18.94%
same,GI%,[48],— (— GI% is below 15%)
same,GI%,[49],— (— GI% is below 15%)
same,GI%,[50],— (— GI% is below 15%)
same,GI%,[51],57.96%
same,GI%,[52],34.47%
same,GI%,[53],34.65%
same,GI%,[54],15.29%
same,GI%,[55],40.80%
"COc1ccc(-c2nnc3ccc(NN=Cc4ccc(C)cc4)nn23)cc1 [Compound 4f, 3-(4-Methoxyphenyl)-6-(2-(4-methylbenzylidene)hydrazinyl)-[1,2,4]triazolo[4,3-b]pyridazine]",GI%,[1],— (— GI% is below 15%)
same,GI%,[2],31.76%
same,GI%,[3],58.61%
same,GI%,[4],16.52%
same,GI%,[5],43.09%
same,GI%,[6],43.09%
same,GI%,[7],66.62%
same,GI%,[8],48.83%
same,GI%,[9],21.17%
same,GI%,[10],60.93%
same,GI%,[11],— (— GI% is below 15%)
same,inhibition at 10 µM,[12],34.8%
same,GI%,[13],63.09%
same,GI%,[14],— (— GI% is below 15%)
same,GI%,[15],20.85%
same,GI%,[16],76.27%
same,GI%,[17],29.57%
same,GI%,[18],— (— GI% is below 15%)
same,GI%,[19],— (— GI% is below 15%)
same,GI%,[20],20.16%
same,GI%,[21],31.89%
same,GI%,[22],81.11%
same,GI%,[23],17.40%
same,GI%,[24],49.25%
same,GI%,[25],55.13%
same,GI%,[26],45.38%
same,GI%,[27],20.07%
same,GI%,[29],70.93%
same,GI%,[30],— (— GI% is below 15%)
same,GI%,[31],50.02%
same,GI%,[32],— (— GI% is below 15%)
same,GI%,[33],— (— GI% is below 15%)
same,GI%,[34],— (— GI% is below 15%)
same,GI%,[35],41.02%
same,GI%,[36],23.07%
same,GI%,[37],66.50%
same,GI%,[38],38.74%
same,GI%,[39],45.37%
same,GI%,[40],— (— GI% is below 15%)
same,GI%,[41],74.21%
same,GI%,[42],— (— GI% is below 15%)
same,GI%,[43],24.01%
same,GI%,[44],17.28%
same,GI%,[45],35.32%
same,GI%,[46],— (— GI% is below 15%)
same,GI%,[47],27.83%
same,GI%,[48],— (— GI% is below 15%)
same,GI%,[49],— (— GI% is below 15%)
same,GI%,[50],34.65%
same,GI%,[51],40.91%
same,GI%,[52],42.84%
same,GI%,[53],84.42%
same,GI%,[54],37.84%
same,GI%,[55],— (— GI% is below 15%)

# From article PMC11420776 (RSC Advances, 2024)
